Several values for one entry are separate records, joined by “and”; a condition that tells them apart may be missing. Identical values can stand only once. Like-named read-outs stand apart in the source and are kept apart here.
What was measured:
[1] = test system: VEEV TC-83 virus expressing a luciferase reporter gene (TC-83-luc); assay: microbe, parasite or virus in culture; format: cell-based, Venezuelan equine encephalitis virus
VEEV TC83 = assay: microbe, parasite or virus in culture; format: cell-based; conditions: Venezuelan equine encephalitis virus, Vero, 16 h, read-out: Titre reduction (%)
[2] = test system: nuclear import of VEEV CP-GFP fusion protein; assay: cells; format: cell-based; conditions: for inhibition of nuclear import of CP-GFP (FRAP, Fn(rec)max): 200 µM; for inhibition at 200 µM: Venezuelan equine encephalitis virus, HeLa, 2 h, read-out: inhibition of nuclear import of CP-GFP (FRAP, Fn(rec)max)
in vitro = conditions: African green monkey
Vero cells [3] = test system: Vero cells
[4] = test system: VEEV CP nuclear accumulation; format: cell-based, Venezuelan equine encephalitis virus
[5] = test system: VEEV TC-83 virus expressing a luciferase reporter gene (TC-83-luc); conditions: read-out: anti-VEEV activity EC50; cited from earlier work
Vero cells [6] = conditions: cited from earlier work
[7] = Venezuelan equine encephalitis virus, Vero, read-out: EC50, concentration yielding 50% inhibition of viral replication
[8] = read-out: EC50, concentration yielding 50% inhibition of viral replication
[9] = Venezuelan equine encephalitis virus, Vero, read-out: EC50, µM (cells printed ND)

SMILES | EC50 [1, 7] [µM] | EC50 [1, 8] | inhibition at 10 µM (VEEV TC83) [%] | CC50 (in vitro) [µM] | SI, selectivity index (CC50/EC50) [1] | further results
CC#C[C@]1(O)CC[C@H]2[C@@H]3CCC4=CC(=O)CCC4=C3[C@@H](c3ccc(NC)cc3)C[C@@]21C [Compound 6, Desmethyl-mifepristone, reference compound] | – | – | – | – | – | detectable antiviral (anti-VEEV) activity, in words [1]: eliminated any detectable antiviral activity
COc1ccc(C#C[C@]2(O)CC[C@H]3[C@@H]4CCC5=CC(=O)CCC5=C4[C@@H](c4ccc(N(C)C)cc4)C[C@@]32C)cc1 [Compound 39] | < 10 | 5.23 µM and 5.2 µM | 47.4 ± 21.4 | > 100 | – | inhibition of nuclear import of CP-GFP (FRAP, Fn(rec)max) [2]: did not significantly alter CP nuclear import dynamics
CN(C)c1ccc([C@H]2C[C@@]3(C)[C@@H](CC[C@@]3(O)C#CCO)[C@@H]3CCC4=CC(=O)CCC4=C32)cc1 [Compound 11] | – | – | – | > 100 | – | detectable antiviral (anti-VEEV) activity, in words [1]: abolished any detectable antiviral activity; EC50 [1, 9]: > 100 µM
CN(C)c1cccc([C@H]2C[C@@]3(C)[C@@H](CC[C@@]3(O)C#C[Si](C)(C)C)[C@@H]3CCC4=CC(=O)CCC4=C32)c1 [Compound 54] | 6 ± 1.1 | – | 94.1 ± 7.1 | > 100 | >16.7 | –
COc1ccc(C#C[C@]2(O)CC[C@H]3[C@@H]4CC[C@@]5(O)CC6(CCC5=C4[C@@H](c4ccc(N(C)C)cc4)C[C@@]32C)OCCO6)cc1 [Compound 37] | – | – | 67.1 ± 12.2 | > 100 | – | inhibition of nuclear import of CP-GFP (FRAP, Fn(rec)max) [2]: did not significantly alter CP nuclear import dynamics
C/C=C\[C@]1(O)CC[C@H]2[C@@H]3CCC4=CC(=O)CCC4=C3[C@@H](c3ccc(N(C)C)cc3)C[C@@]21C [Compound 7, Aglepristone, reference compound] | – | 25.3 µM | – | – | – | CC50 (Vero cells [3]): > 100 µM
CC#C[C@]1(O)CC[C@H]2[C@@H]3CCC4=CC(=O)CCC4=C3[C@@H](c3ccc(N(C)C)cc3)C[C@@]21C [Compound 1, mifepristone, reference compound] | 19.9 ± 2.7 | 19.9 ± 2.7 µM | 93.7 ± 19.6 | 165 | – | inhibition at 200 µM [2]: ~30%; nuclear accumulation of CP in infected cells (Fn/c) [4]: reduced the nuclear accumulation of CP; EC50 [5]: 20 µM; CC50 (Vero cells [6]): > 100 µM
CC[Si](C#C[C@]1(O)CC[C@H]2[C@@H]3CC[C@@]4(O)CC5(CCC4=C3[C@@H](c3ccc(N(C)C)cc3)C[C@@]21C)OCCO5)(CC)CC [Compound 31] | 4.7 | – | 93.9 ± 3.2 | > 100 | 4.7 ± 0.5 >100 >21.5 | –
CN(C)c1ccc([C@H]2C[C@@]3(C)[C@@H](CC[C@@]3(O)C#CC(F)(F)F)[C@@H]3CCC4=CC(=O)CCC4=C32)cc1 [Compound 9, Trifluoromethylmifepristone] | 17.8 ± 1.7 | – | – | > 100 | – | detectable antiviral (anti-VEEV) activity, in words [1]: did not significantly alter the activity of the analogue from 1
CN(C)c1ccc([C@H]2C[C@@]3(C)[C@@H](CC[C@@]3(O)C#C[Si](C)(C)C)[C@@H]3CCC4=CC(=O)CCC4=C32)cc1 [Compound 33] | < 10 | 8.49 µM and 8.5 µM | – | > 100 | – | inhibition at 200 µM [2]: ~30%
CC(C)[Si](C#C[C@]1(O)CC[C@H]2[C@@H]3CCC4=CC(=O)CCC4=C3[C@@H](c3ccc(N(C)C)cc3)C[C@@]21C)(C(C)C)C(C)C [Compound 35] | 16.3 ± 4.7 | 16.3 µM | – | > 100 | – | –
COc1ccc(C2C[C@@]3(C)[C@@H](CC[C@@]3(O)C#C[Si](C)(C)C)[C@@H]3CCC4=CC(=O)CCC4=C23)cc1 (stereo partly drawn) [Compound 51] | 22.5 ± 2.4 | – | – | > 100 | >4.5 | –
CN(C)c1ccc([C@H]2C[C@@]3(C)[C@@H](CC[C@@]3(O)C#CC(F)(F)F)[C@@H]3CC[C@@]4(O)CC5(CCC4=C32)OCCO5)cc1 [Compound 8] | 27.6 | – | – | > 100 | 27.6 ± 5.1 >100 >3.6 | –
C[C@]12C[C@H](c3ccc(-c4ccccc4)cc3)C3=C4CCC(=O)C=C4CC[C@H]3[C@@H]1CC[C@@]2(O)C#C[Si](C)(C)C [Compound 53] | 5 ± 0.7 | – | 91.1 ± 5.4 | > 100 | >20.1 | –
CC(=O)O[C@]1(C(C)=O)CC[C@H]2[C@@H]3CCC4=CC(=O)CCC4=C3[C@@H](c3ccc(N(C)C)cc3)C[C@@]21C [Compound 21, Ulipristal Acetate, reference compound] | 11.5 | 11.5 ± 7 µM | – | > 100 | >8.67 | –
CN(C)c1ccc([C@H]2C[C@@]3(C)[C@@H](CC[C@@]3(O)C#C[Si](C)(C)C)[C@@H]3CC[C@@]4(O)CC5(CCC4=C32)OCCO5)cc1 [Compound 30] | 11.1 ± 1.9 | – | 88.4 ± 4.8 | > 100 | >9.0 | –
CN(C)c1ccc([C@H]2C[C@@]3(C)[C@@H](CC[C@@]3(O)C#Cc3ccccc3)[C@@H]3CC[C@@]4(O)CC5(CCC4=C32)OCCO5)cc1 [Compound 36] | 7.2 | – | 53.9 ± 18.8 | > 100 | 7.2 ± 2.3 >100 >14.0 | –
CC(C)[Si](C#C[C@]1(O)CC[C@H]2[C@@H]3CC[C@@]4(O)CC5(CCC4=C3[C@@H](c3ccc(N(C)C)cc3)C[C@@]21C)OCCO5)(C(C)C)C(C)C [Compound 32] | 22 | – | 89.7 ± 4.6 | > 100 | 22.0 ± 6.1 >100 >4.5 | –
CN(C)c1ccc([C@H]2C[C@@]3(C)[C@@H](CC[C@@]3(O)C#Cc3ccccc3)[C@@H]3CCC4=CC(=O)CCC4=C32)cc1 [Compound 38] | 8.46 ± 1.7 | 8.5 µM | 69.7 ± 15.4 | > 100 | >11.82 and 8.5 ± 1.7 >100 >11.8 | –
C[C@]12C[C@H](c3ccccc3)C3=C4CCC5(C[C@]4(O)CC[C@H]3[C@@H]1CC[C@@]2(O)C#C[Si](C)(C)C)OCCO5 [Compound 45] | 2.6 ± 0.4 | – | 95.4 ± 4.1 | > 100 | >38.7 | –
CC[Si](C#C[C@]1(O)CC[C@H]2[C@@H]3CCC4=CC(=O)CCC4=C3[C@@H](c3ccc(N(C)C)cc3)C[C@@]21C)(CC)CC [Compound 34] | – | – | 95.8 ± 1.9 | > 100 | – | inhibition at 200 µM [2]: ~30%
CN(C)c1ccc([C@H]2C[C@@]3(C)[C@@H](CC[C@@]3(O)/C=C\CO)[C@@H]3CCC4=CC(=O)CCC4=C32)cc1 [Compound 13, Lilopristone, reference compound] | – | – | – | > 100 | – | detectable antiviral (anti-VEEV) activity, in words [1]: abolished any detectable antiviral activity; EC50 [1, 9]: > 100 µM

— publication PMC6385310 (Scientific Reports, 2019)
